Reference: EPA's ToxValDB 9.5 (doi:10.2903/j.efsa.2008.147r)

Key:
[1] = test system: Anas platyrhynchos
[2] = test system: Aphidius rhopalosiphi; settings: not reported
[3] = test system: Apis mellifera; settings: acute; duration: 48 hours; dermal; mortality
[4] = test system: Canidae; settings: chronic, oral, Dog Other, clinical signs
[5] = test system: Daphnia magna; settings: chronic/long-term; duration: 21 days; reproduction
[6] = test system: Oncorhynchus mykiss
[7] = test system: Rattus norvegicus
[8] = test system: Tagia sp.

CC[C@H](C)[C@H]1O[C@]2(C=C[C@@H]1C)C[C@@H]1C[C@@H](C/C=C(\C)[C@@H](O[C@H]3C[C@H](OC)[C@@H](O[C@H]4C[C@H](OC)[C@@H](O)[C@H](C)O4)[C@H](C)O3)[C@@H](C)/C=C/C=C3\CO[C@@H]4[C@H](O)C(C)=C[C@@H](C(=O)O1)[C@]34O)O2.CO[C@H]1C[C@H](O[C@H]2[C@H](C)O[C@@H](O[C@@H]3/C(C)=C/C[C@@H]4C[C@@H](C[C@]5(C=C[C@H](C)[C@@H](C(C)C)O5)O4)OC(=O)[C@@H]4C=C(C)[C@@H](O)[C@H]5OC/C(=C\C=C\[C@@H]3C)[C@]54O)C[C@@H]2OC)O[C@@H](C)[C@@H]1O [Abamectin]
LD50 ([1]; acute, oral, unspecified, mortality): ≤ 77 mg/kg-day | NOEC ([1]; reproductive, M): 1.33 mg/kg-day | LC50 ([1]; short-term, oral, feed, mortality): 48.6 mg/kg-day | LEL ([2]; mortality): 4.32 g/ha | LEL ([2]; reproduction): 4.32 g/ha | LD50 [3]: 0.0022 µg/piece | NOAEL ([4]; duration: 18 weeks): 0.25 mg/kg-day | NOAEL ([4]; duration: 53 weeks): 0.25 mg/kg-day | NOEC [5]: 1e-05 mg/L | LC50 ([6]; acute, duration: 96 hours, mortality): 3.6 ng/mL | NOEC ([6]; chronic/long-term, duration: 28 days): 0.00052 mg/L | NOAEL ([7]; acute, clinical signs): 0.5 mg/kg-day | LD50 ([7]; acute, oral, mortality): 8.7 mg/kg-day | NOEC ([7]; chronic): 0.12 mg/kg-day | LC50 ([8]; acute, duration: 14 days, mortality): 33 mg/kg | NOEC ([8]; chronic/long-term): > 0.72 mg/kg
